Measurements published in patent US6582680B2, “Acid resistant film forming dental composition and method of use” (priority 1999, dated 2003).
Structures can show the parent of a compound that is named as a salt.

System: dentin postoperative hypersensitivity of human teeth
Test: Clinical evaluation of post-operative dentin hypersensitivity in amalgam restoration patients
Format: in vivo
Description: Prior to anesthesia for pre-treatment evaluation and during the first week of treatment, the patients completed a questionnaire on pain. The patients were also evaluated post-operatively at one, three and six weeks. […] Only patients who had elected amalgam restoration procedures at UAB were employed for this study. Each tooth received a pre anesthesia evaluation for dentin postoperative hypersensitive with a cold stimulus and air jet for thermal testing. For cold-ice testing, plastic needle covers were filled with water and frozen in a refrigerator freezer for uses as the standardized cold stimulus. For air stimulation, the standardized baseline air jet from a syringe was used to direct a blast of air at the offending tooth and defective restoration. A randomized number chart was employed to select teeth for either the Copalite® varnish controls or teeth to be treated with the product of the present invention, potassium oxalate dihydrate. Following pre operative data collection and anesthesia, each tooth then received a routine intracoronal Class-I or Class-II cavity preparations. […] Following cavity preparation, rinsing and gentle air drying, the entire preparation surface was treated with the Copalite® varnish without modification or removal of the smear layer. Each control cavity was treated with three layers of copal varnish and each layer gently air dispersed with a chip syringe before the following Copalite® coat was applied. […] The patient was also evaluated for postoperative hypersensitivity at one, three and six weeks post-operatively. […] Thermal tests for ice and an air jet were administered and data recorded as for all of the previous tests. For base line data, each patient was evaluated for pain or sensitivity to cold and air prior to their treatment in this study. […] All data was analyzed by one-way Analysis of Variance (ANOVA) at the 0.05 level depending on the cell sizes in our contingency table of treatments versus responses. […] Responses from each of the patients were recorded on separate sheets and then tabulated onto the master sheet according to the identified criteria. The raw data were recorded from the McGill Visual Analog Scale (MVAS) evaluation sheets. Data were recorded from all patients experiencing none, some or severe post-operative hypersensitivity based on the patient responses at the various intervals, preoperative at 0 days, and post treatment […]. […] The date for each of the McGill VA scales were tabulated and recorded on a separate sheet with the patient's name and clinical record number-as a 10 centimeter straight line with no identifying marks along its axis.

O=C(O)C(=O)O [potassium oxalate dihydrate, oxalate acid potassium salt, dihydrate 99%]
patients pain free following the first procedure (MVA survey, post-operative): 88.5%
reduction in post-operative pain (collective MVA scale data) (McGill Visual Analog Scale, treated teeth): dramatic reduction
overall pain reduction for the cold discriminator measurement (cold stimulus, compared with Copalite): greater reduction
reduction in sensitivity / reported pain to the various stimuli (especially cold), in response to direct questioning (patients, post-operatively after amalgam restoration): 80.3%
